The values below come from patent EP0509180A1, “Use of GABA-T inhibitors for the treatment of schizophrenia and phencyclidine intoxication” (MERRELL DOW PHARMACEUTICALS INC., priority 1991, dated 1992).

Each structure is given as a SMILES string.

Series [1] deals with male CDl albino mice. In words: Spontaneous locomotor activity of mice (actimeter, Event-Counter). The class given is in vivo. As to the method:
(§1) In determining efficacy for the above-stated uses of gamma-aminobutyric acid transaminase inhibitors standard laboratory models are employed wherein effects on phencyclidine-induced locomotor activity are determined. One such test employed is: male CDl albino mice (weighing 30-40 grams) (Charles River, St. Aubin-les-Elbeuf, France) kept under standardized conditions (22°C, 60% relative humidity; 12 hours light - 12 hours dark cycle; water and standard diet ad libitum). Locomotor activity is determined using the Event-Counter of Columbus Instr. Corp. (Columbus, Ohio). The animals (six per cage) are brought into a room which is equipped with an actimeter, and allowed to adapt to the new environment for several hours. Phencyclidine is given 5 hours after administration of the GABA-T inhibitors. The dose of phencyclidine used is 5 µg/g in 10 µl of physiological saline, i.p. Immediately after phencyclidine administration (or of the same volume of physiological saline in the case of controls), the animals are placed individually into standard plastic cages (23 cm × 17 cm), and the actimeter is set into action. Total time of observation: 35 minutes. The scores of 5 minute intervals are integrated and stored by the computer.
(§2) In order to test "direct" effects of the drugs, locomotor activity was determined, starting 10 minutes after intraperitoneal administration of 150 mg/kg (4S)-allenylGABA, and 400 mg/kg vigabatrin, respectively.
(§3) The locomotor behavior of mice with elevated brain GABA concentrations was tested as follows: vigabatrin and (4S)-allenylGABA were administered intraperitoneally in a dose-range from 100-800 mg/kg and 50-300 mg/kg, respectively. Within this dose range whole brain GABA concentrations, as observed 5 hours post injection were between 2.5 and 10 µmol/g.

Another series deals with whole brain GABA. In words: Whole brain GABA concentrations after GABA-T inhibitor administration. Format: in vivo, mice. To be noted: 15 minutes after administration of optimum doses.
Series [2] has as its system male CDl albino mice. In words: Phencyclidine (PCP)-induced locomotor activity of mice (actimeter, Event-Counter). Format: in vivo. Conditions: for direct effect on phencyclidine-induced locomotor behavior (in words): 10 minutes (15 minutes) after i.p. 150 mg/kg (4S)-allenylGABA or 400 mg/kg vigabatrin (Table I). As to the method:
as §1, §2, §3

For `C=C=C[C@@H](N)CCC(=O)O` [(4S)-allenylGABA, (S)-4-amino-5,6-heptadienoic acid], the “Spontaneous locomotor activity, Mean scores ± S.D.” value with male CDl albino mice [1] (50 mg/kg i.p., 5 h pretreatment) was 306.244 ( 6); in the series on male CDl albino mice [1] (100 mg/kg i.p., 5 h pretreatment) it was 406.221 ( 6); in the series on male CDl albino mice [1] (150 mg/kg i.p., 5 h pretreatment) it was 315.304 ( 6); in the series on male CDl albino mice [1] (150 mg/kg i.p., given 10 minutes before physiol. saline), 688 ± 308 ( 6); in the series on male CDl albino mice [1] (300 mg/kg i.p., 5 h pretreatment), 445.420 ( 6). For the same compound, in the series on male CDl albino mice [1] (600 mg/kg (not shown)), the “sedation / motor activity at very high dose” value is recorded as “sedated”. In addition, in the series on male CDl albino mice [1] (dose range from 50 to 300 mg/kg, 5 h pretreatment (Table III)), the “effect on spontaneous locomotor activity (in words)” value is listed as “did not affect”. Further, the “brain GABA concentrations” value in the series with whole brain GABA is recorded as “below 3 µmol/g”. In the series on male CDl albino mice [2] (150 mg/kg i.p., given 10 minutes before phencyclidine (5 mg/kg)), the “PCP-induced locomotor activity, Mean scores ± S.D.” value (“PCP-induced locomotor activity” for short) was 2680 ± 1040 (11). In the series with male CDl albino mice [2], the “direct effect on phencyclidine-induced locomotor behavior (in words)” value is “absence of an effect”. Further, in the series with male CDl albino mice [2] (Mus musculus, 5 h, read-out: dose giving a statistically significant difference to mice receiving only phencyclidine), the minimal effective dose was no less than 100 mg/kg. Moreover, in the series on male CDl albino mice [2] (highest dose given (300 mg/kg) i.p. 5 h before phencyclidine), the “phencyclidine-induced hypermotility reduced by” value amounted to 75%.

Regarding `C=C[C@H](N)CCC(=O)O` [Vigabatrin, (R)S-4-aminohex-5-enoic acid], the “Spontaneous locomotor activity, Mean scores ± S.D.” value in the series with male CDl albino mice [1] (200 mg/kg i.p., 5 h pretreatment) was 505 ± 344 (6); with male CDl albino mice [1] (400 mg/kg i.p., 5 h pretreatment), 471 ± 306 (12); with male CDl albino mice [1] (400 mg/kg i.p., given 10 minutes before physiol. saline, 35 minutes observation), 528 ± 239 ( 6); with male CDl albino mice [1] (600 mg/kg i.p., 5 h pretreatment), 361 ± 139 (6); in the series with male CDl albino mice [1] (700 mg/kg i.p., 5 h pretreatment), 441 ± 298 (6); with male CDl albino mice [1] (800 mg/kg i.p., 5 h pretreatment), 435 ± 275 (6). For the same compound, the “effect on spontaneous locomotor activity (in words)” value in the series on male CDl albino mice [1] (100-800 mg/kg i.p., 5 h pretreatment (Table II)) was “not significantly affected”. The “brain GABA concentrations” value in the series with whole brain GABA is given as “below 3 µmol/g”. Further, the “PCP-induced locomotor activity” value with male CDl albino mice [2] (100 mg/kg i.p. 5 h before phencyclidine (5 mg/kg)) is recorded as 2360 ± 1100 (12); with male CDl albino mice [2] (200 mg/kg i.p. 5 h before phencyclidine (5 mg/kg)), 1970 ± 730 (12); in the series with male CDl albino mice [2] (400 mg/kg i.p. 5 h before phencyclidine (5 mg/kg)) it was 1690 ± 1385 (12); with male CDl albino mice [2] (400 mg/kg i.p., given 10 minutes before phencyclidine (5 mg/kg)), 2460 ± 1220 (11); in the series on male CDl albino mice [2] (600 mg/kg i.p. 5 h before phencyclidine (5 mg/kg)) it was 2180 ± 410 (12); in the series on male CDl albino mice [2] (700 mg/kg i.p. 5 h before phencyclidine (5 mg/kg)), 1780 ± 1080 (12). In the series on male CDl albino mice [2] (800 mg/kg i.p. 5 h before phencyclidine (5 mg/kg)), the “PCP-induced locomotor activity” value was 2100 ± 1780 (12). For the same compound, in the series on male CDl albino mice [2] (400 mg/kg i.p. 5 h before phencyclidine), the “locomotor activity, lowest value, as % of that of phencyclidine-treated controls” value was 55%. For the same compound, the “direct effect on phencyclidine-induced locomotor behavior (in words)” value in the series on male CDl albino mice [2] is recorded as “absence of an effect”.
